Target: α-glucosidase
Test: α-glucosidase inhibition (assay details and enzyme source not described)
Assay type: biochemical

Question: How did the IC50 turn out when `C=C(C)C1CC23C(=O)C4(C/C=C(\C)CCC=C(C)C)CC(CC2C1(C)C)C(C)(C)C(C(=O)c1ccccc1)(C4=O)C3=O` (stereo not shown) [Cowabenzophenone A] was run?
Answer: 7.8 ± 0.5 µM
